Results from patent US20050239891A1, “Use of citrulline within the framework of intestinal insufficiency” (priority 2003, published 2005).

How the values were obtained:
[1] = Plasma amino acid concentrations in malnourished aged rats after renutrition; format: in vivo, Sprague-Dawley rats; settings: male, Sprague-Dawley, rat, plasma, oral; elderly malnourished rats, diet enriched with L-citrulline 5 g/kg/d for a week; average ± SDM; p<0.05 vs AL, R and AANE
Description: (§1) Male Sprague-Dawley rats (Charles River Laboratories, L'Arbresles, France) aged 19 months were placed in individual cages, in a thermostatically controlled ambience (23°±1° C.), and subjected to a 12-hour light-darkness cycle (darkness from 08.00 hours to 20.00 hours). Their acclimatization was carried out over 2 weeks, during which their spontaneous food consumption was measured. They were fed a standard diet (A04, UAR, Villemoisson-sur-Orge, France) containing 17% proteins, 3% lipids, 59% carbohydrates and 21% water, fibres, vitamins and minerals. The average food intake during this period is 34.4 g/day.
(§2) After the acclimatization period, the rats were divided into 4 groups (cf. FIG. 5): a control group comprising rats (n=10) fed ad libitum (AL) for 12 weeks and 3 other groups subjected to a food restriction during the same period, i.e. fed with only 50% of the spontaneous ingesta (i.e. 17.2 g), with the standard diet (UAR A04).
(§3) At the end of the restriction period, the animals (n=10) in one group were […] sacrificed (group R) and the rats of the two remaining groups were fed for a week with 90% of the spontaneous ingesta (i.e. 30.9 g), either on a diet enriched with non-essential amino acids (AANE group: alanine, asparagine, glycine, serine, histidine, and proline supplied in equimolar fashion) or on a diet enriched with L-citrulline (5 g/kg/d) (citrulline group). The intakes of the two groups were isonitrogenous and isocaloric. The limitation to 90% of the spontaneous intakes makes it possible to be certain that the rats consume all of the food offered to them (Walrand et al., 2000).
(§4) At the end of the experimental period, the rats, in post-absorptive situation, were anaesthetized with isoflurane (3%) and received a subcutaneous injection of ^13C-valine at variable times before being killed by decapitation.
(§5) The blood was collected on heparin and centrifuged (3500 rpm, at +4° C. for 15 minutes). […]
(§6) The results are presented in the form of an average ±standard deviation from the mean (SDM). The results are analyzed by an ANOVA followed by an a posteriori Duncan test. […]

[2] = tested on: elderly malnourished rats; experiment: as above; format: in vivo, Sprague-Dawley rats; settings: diet enriched with L-citrulline 5 g/kg/d for a week, average ± SDM, p<0.05 vs AL, R and AANE
Description: as §1, §2, §3, §4, §5, §6

[3] = tested on: elderly malnourished rats; experiment: Tibialis muscle amino acid content in malnourished aged rats after renutrition; format: in vivo, Sprague-Dawley rats; settings: diet enriched with L-citrulline 5 g/kg/d for a week, average ± SDM, p<0.05 vs AL, R and AANE
Description: as §1, §2, §3
The 2 Tibialis muscles (TIB) were removed in order to determine on the one hand the protein and amino acid content (right TIB) and on the other hand, the fractional (FSR) and absolute (ASR) protein synthesis rates (left TIB). […]
as §6

[4] = tested on: elderly malnourished rats; experiment: Tibialis muscle protein synthesis rate (13C-valine incorporation) in malnourished aged rats after renutrition; format: in vivo, Sprague-Dawley rats; settings: L-citrulline 5 g/kg/d for a week
Description: as §1
as §2, with “A04). […]” for “A04).”
The synthesis rate was determined on the TIB by the method of injecting a dose of a tracer amino acid charge. […]

[5] = tested on: elderly malnourished rats; experiment: Tibialis muscle protein content (Gornall method) in malnourished aged rats after renutrition; format: in vivo, Sprague-Dawley rats; settings: after renutrition phase, L-citrulline 5 g/kg/d for a week; CIT vs AL, R, AANE, p<0.05 (FIG. 4)
Description: as §1
as §2, with “A04). […]” for “A04).”
Determination of the protein content was carried out on the TIB. […] The proteins content of the TIB is measured by the Gornall method. […]
as §6

[6] = tested on: rats that have undergone an intestinal resection (short-bowel syndrome model); experiment: Short-bowel syndrome model: enteral nutrition supplemented with citrulline or arginine after intestinal resection; format: in vivo, Wistar rats; settings: for weight gain: resected rats (approx. 80% of small intestine), after 10 days of enteral nutrition, L-citrulline 1 g/kg/day or L-arginine 0.994 g/kg/day, AANE approx. 15 g, SHAM approx. 21 g (FIG. 1)
From the text: The rat was chosen as model to evaluate the effect of supplementation with citrulline within the framework of an intestinal insufficiency and in particular within the framework of the short-bowel syndrome.
24 Wistar rats weighing approximately 220-230 g were used. They were acclimatized in metabolic cages for 5 days before being operated on; during this period they had free access to water and standard laboratory food.
The intakes of L-arginine and L-citrulline correspond to those used in humans taking account of the difference in metabolic rate between the two species (rate approximately 10 times higher in the rat).
Enteral nutrition was carried out for 10 days continuously by the insertion of a gastric probe. The nitrogen intake was 2 g/kg/day and the calorie intake 290 kcal/kg/day. The food rations were rendered isonitrogenous by intake of a mixture of non-essential amino acids (Gly, Ala, Ser, His, Pro, Asn) (Sigma-Aldrich).
Three types of measurements were carried out in particular: a daily measurement of the weight of the animals, a measurement of the concentration of arginine in the plasma at the end of the experiment by ion-exchange chromatography using a JEOL device and a daily monitoring of the cumulative nitrogen balance by adding up the daily differences between the quantity of nitrogen absorbed and the quantity of nitrogen evacuated in the urine by pyroluminescence using an ANTEK apparatus.

| Structure (SMILES) | concentration at 1 week [1] [µM] | Concentration of Ornithine in the plasma [2] [µmol/L] | concentration of arginine in the plasma [2] [µmol/L] | Concentration of Arginine in the TIB [3] [nmol/g] | Concentration of Citrulline in the TIB [3] [nmol/g] | Concentration of Ornithine in the TIB [3] [nmol/g] | fractional protein synthesis rate (FSR) in the Tibialis muscle ([4]; compared with the other groups (FIG. 5A)) | absolute protein synthesis rate (ASR) in the Tibialis muscle ([4]; CIT vs R and AANE, p<0.05 (FIG. 5B)) | protein concentrations in the TIB [5] | weight gain [6] | cumulative nitrogen balance ([6]; resected rats, 10 days of supplemented enteral nutrition, compared with SHAM control (FIG. 3)) | concentration of arginine in the plasma ([6]; resected rats, after 10 days of supplemented enteral nutrition, compared with SHAM control (FIG. 2)) |
| --- | --- | --- | --- | --- | --- | --- | --- | --- | --- | --- | --- | --- |
| NC(=O)NCCC[C@H](N)C(=O)O [CIT, L-citrulline] | 2390 ± 279 | 223 ± 27 | 561 ± 55 | 203 ± 35 | 616 ± 104 | 20 ± 4 | does not seem significant | significant increase | significant increase | approximately 21 g | re-establish a nitrogen balance in the animals that have undergone resection, at the same level as that of the control group | – |
| N=C(N)NCCC[C@H](N)C(=O)O [ARG, L-arginine, reference compound] | – | – | – | – | – | – | – | – | – | approximately 17 g | – | increase the concentration of arginine in the plasma compared with the control |
